Where two headings read alike, the source gives them in different places.
How the values were obtained:
[1] = test system: PC3 (human prostate adenocarcinoma); test: MTT cytotoxicity assay, PC3; type: cell-based; conditions: for IC50: Homo sapiens; for Selectivity index PC3: ratio of cytotoxicity L929 / PC3
Protocol: (§1) In this study, the IC50 was obtained in micromolar concentrations, using the colourimetric MTT (3-(4,5-dimethylthiazol-2-yl)-2,5-diphenyl tetrazolium bromide)) assay, and doxorubicin was used as the positive control. […] The activity against the non-tumoural murine fibroblast cell line L929 was also evaluated in order to study the cytotoxicity behaviour of each compound and to understand their respective relative selectivity. The selectivity index was obtained using the ratio of measured cytotoxicity between the L929 cell line and each of the cancer cell lines, and the results are presented in Table 2.
(§2) The in vitro cytotoxicity activity of the compounds was evaluated by the colorimetric MTT (3-(4,5-dimethylthiazol-2-yl)-2,5-diphenyl tetrazolium bromide)) assay using the following tumor cell lines: HCT-116 (colon carcinoma), PC3 (prostate), SNB-19 (glioblastoma), K-562 (myelogenous leukaemia), HL-60 (human promyelocytic leukaemia), B16 (murine melanoma), A549 (human lung carcinoma), KG1 (human acute myeloid leukaemia), and RAJI (human Burkitt’s lymphoma), which were provided by the National Cancer Institute (Bethesda, MD, USA). The L929 cell line (mouse fibroblast L cells NCTC clone 929) employed in this study as a control cell line was obtained from the American Type Culture Collection (Manassas, VA, USA). The cell lines (Table S4) were maintained in flasks containing RPMI 1640 or DMEM medium supplemented with 10% bovive fetal sérum, 100 U/mL penicillin, and 100 μg/mL streptomycin at 37 °C and in 5% CO2 atmosphere. The compounds tested were dissolved in DMSO. Doxorubicin served as the positive control. Cell treatments were performed with three replicates and the cells were mycoplasma free. After 72 h incubation, 100 μL of MTT solution (0.5 mg/mL) was added to each well, and the cells were incubated for 3 h. The supernatant was removed and 100 μL of DMSO was added and the absorbance at 595 nm was measured using Victor Nivo Multimode plate reader (PerkinElmer, Waltham, MA, USA). The absorbances obtained were used to calculate the IC50 values by nonlinear regression employing appropriate statistical software.
(§3) The in vitro cytotoxicity activity of compounds was evaluated by the colorimetric MTT (3-(4,5-dimethylthiazol-2-yl)-2,5-diphenyl tetrazolium bromide)) assay using tumor cell lines: HCT-116 (colon carcinoma), PC3 (prostate), SNB-19 (glioblastoma), K-562 (myelogenous leukaemia), HL-60 (human promyelocytic leukaemia), B16 (murine melanoma), A549 (human lung carcinoma), KG1 (human acute myeloid leukaemia) and RAJI (human Burkitt's lymphoma), which were provided by the National Cancer Institute (Bethesda, MD, USA). The L929 cell line (mouse fibroblast L cells NCTC clone 929) employed in this study as a control cell line was obtained from the American Type Culture […]
(§4) Collection (Manassas, VA, USA). Cell lines (Table 01) were maintained in flasks containing RPMI 1640 or DMEM medium supplemented with 10% bovive fetal sérum, 100 U/mL penicillin, and 100 μg/mL streptomycin at 37 °C and 5% CO2 atmosphere.
(§5) Compounds tested were dissolved in DMSO. Doxorubicin served as positive control. Cell treatments were performed with three replicates and cells were mycoplasma-free. After 72 h incubation, 100 μL of MTT solution (0.5 mg/mL) was added to each well, and cells were incubated for 3 h. The supernatant was removed and 100 μL of DMSO was added and the absorbance at 595 nm was measured using Victor Nivo Multimode plate reader

[2] = test system: B16 (murine melanoma); test: MTT cytotoxicity assay, B16; type: cell-based; conditions: for IC50: Mus musculus, MTT, 72 h exposure, three independent experiments, read-out: Cytotoxic activity IC50 (95% CI) B16; for Selectivity index B16: ratio of cytotoxicity L929 / B16
Protocol: as §1, §2, §3, §4, §5

[3] = test system: L929 cells (non-tumoral mouse fibroblast); test: MTT cytotoxicity assay, L929 control line; type: cell-based; conditions: 72 h exposure, read-out: Cytotoxic activity IC50 (95% CI) L929
Protocol: as §1, §2, §3, §4, §5

[4] = MTT cytotoxicity assay, L929 control line; type: cell-based, mouse; conditions: mouse, L929 fibroblast cells (non-tumoral control line), 72 h exposure, read-out: Cytotoxic activity IC50 (95% CI) L929
Protocol: as §1, §2, §3, §4, §5

[5] = test system: KG1 (human acute myeloid leukaemia); test: MTT cytotoxicity assay, KG1; type: cell-based; conditions: for IC50: Homo sapiens, MTT, 72 h exposure, three independent experiments, read-out: Cytotoxic activity IC50 (95% CI) KG1; for Selectivity index KG1: ratio of cytotoxicity L929 / KG1
Protocol: as §1, §2, §3, §4, §5

[6] = test system: HL60 (human pro-myelocytic leukaemia); test: MTT cytotoxicity assay, HL60; type: cell-based; conditions: for IC50: MTT, 72 h exposure, three independent experiments, read-out: Cytotoxic activity IC50 (95% CI) HL60; for Selectivity index HL60: ratio of cytotoxicity L929 / HL60
Protocol: as §1, §2, §3, §4, §5

[7] = test system: K-562 (human chronic myeloid leukaemia); test: MTT cytotoxicity assay, K-562; type: cell-based; conditions: for IC50: Homo sapiens, K562, MTT, 72 h exposure, three independent experiments, read-out: Cytotoxic activity IC50 (95% CI) K-562; for Selectivity index K-562: ratio of cytotoxicity L929 / K-562
Protocol: as §1, §2, §3, §4, §5

[8] = test system: A549 (human lung carcinoma); test: MTT cytotoxicity assay, A549; type: cell-based; conditions: for IC50: Homo sapiens, A549, MTT, 72 h exposure, three independent experiments, read-out: Cytotoxic activity IC50 (95% CI) A549; for Selectivity index A549: ratio of cytotoxicity L929 / A549
Protocol: as §1, §2, §3, §4, §5

[9] = test system: RAJI (human Burkitt’s lymphoma); test: MTT cytotoxicity assay, RAJI; type: cell-based; conditions: for IC50: Homo sapiens, Raji, 72 h, MTT, 72 h exposure, three independent experiments, read-out: Cytotoxic activity IC50 (95% CI) RAJI; for Selectivity index RAJI: ratio of cytotoxicity L929 / RAJI
Protocol: as §1, §2, §3, §4, §5

[10] = test system: SNB-19 (human astrocytoma); test: MTT cytotoxicity assay, SNB-19; type: cell-based; conditions: for IC50: Homo sapiens, SNB-19, MTT, 72 h exposure, three independent experiments, read-out: Cytotoxic activity IC50 (95% CI) SNB-19; for Selectivity index SNB-19: ratio of cytotoxicity L929 / SNB-19
Protocol: as §1, §2, §3, §4, §5

[11] = test system: HCT-116 (human colorectal carcinoma); test: MTT cytotoxicity assay, HCT-116; type: cell-based; conditions: for IC50: Homo sapiens, HCT-116, 72 h, MTT, 72 h exposure, three independent experiments, read-out: Cytotoxic activity IC50 (95% CI) HCT-116; for Selectivity index HCT-116: ratio of cytotoxicity L929 / HCT-116
Protocol: as §1, §2, §3, §4, §5

[12] = MTT, 72 h exposure, three independent experiments, read-out: Cytotoxic activity IC50 (95% CI) PC3

Structure (SMILES)	IC50 [1, 12] [µM]	Selectivity index PC3 [1]	IC50 [2] [µM]	Selectivity index B16 [2]	IC50 at 72 h [4] [µM]	IC50 [5] [µM]	Selectivity index KG1 [5]	IC50 ([6]; Homo sapiens, HL-60, 72 h) [µM]	Selectivity index HL60 [6]	IC50 [7] [µM]	Selectivity index K-562 [7]	IC50 [8] [µM]	Selectivity index A549 [8]	IC50 [9] [µM]	Selectivity index RAJI [9]	IC50 [10] [µM]	Selectivity index SNB-19 [10]	IC50 [11] [µM]	Selectivity index HCT-116 [11]	further results
C#CCNC1=CC(=O)c2c(O)cccc2C1=O [Compound 18b, 5-hydroxy-2-(prop-2-yn-1-ylamino)naphthalene-1,4-dione]	> 100	0.2	8.65	2.8	24	> 100	0.2	> 100	0.2	25	1.0	15	1.6	23.2	1.0	15	1.6	–	–	IC50 [3]: 23.9 µM
O=C1C(=O)c2ccccc2C2=C1CC(Cn1cc(CNC3=CC(=O)c4c(O)cccc4C3=O)nn1)O2 (stereo not shown) [Compound 20b, 2-((4-(((5-hydroxy-1,4-dioxo-1,4-dihydronaphthalen-2-yl)amino)methyl)-1H-1,2,3-triazol-1-yl)methyl)-2,3-dihydronaphtho[1,2-b]furan-4,5-dione]	10.2	2.7	4.52	6.1	27.6	23.3	1.2	5	5.5	12.8	2.2	18.9	1.5	2.49	11.1	9.47	2.9	7.22	3.8	–
[N-]=[N+]=NCC1CC2=C(O1)c1ccccc1C(=O)C2=O (stereo not shown) [Compound 7, 2-(azidomethyl)-2,3-dihydronaphtho[1,2-b]furan-4,5-dione]	2.25	1.5	1.99	1.7	3.46	3.67	0.9	0.59	5.9	0.98	3.5	2.63	1.3	0.53	6.5	1.43	2.4	1.8	1.9	IC50 ([1]; 72 h, read-out: Bioactivity class according to IC50, PC3): 2 to 10 µM
C#CCNC1=CC(=O)c2cccc(OC)c2C1=O [Compound 18c, 8-methoxy-2-(prop-2-yn-1-ylamino)naphthalene-1,4-dione]	> 100	–	43.8	2.3	> 100	> 100	–	> 100	–	> 100	–	> 100	–	39.3	2.5	> 100	–	> 100	–	–
CC1(C)OC2=C(CC1Cn1cc(CNC3=CC(=O)c4cc5ccccc5cc4C3=O)nn1)C(=O)C(=O)c1ccccc12 (stereo not shown) [Compound 21e, 3-((4-(((1,4-dioxo-1,4-dihydroanthracen-2-yl)amino)methyl)-1H-1,2,3-triazol-1-yl)methyl)-2,2-dimethyl-3,4-dihydro-2H-benzo[h]chromene-5,6-dione]	2.87	0.6	2.86	0.6	1.71	4.21	0.4	0.5	6.6	3.69	0.5	0.88	1.9	6.83	0.3	1.33	1.3	1.74	1.0	IC50 [6]: 0.26 µM
CC1(C)OC2=C(C(=O)C(=O)c3ccccc32)C1n1cc(CNC2=CC(=O)c3c(O)cccc3C2=O)nn1 (stereo not shown) [Compound 19b, 3-(4-(((5-hydroxy-1,4-dioxo-1,4-dihydronaphthalen-2-yl)amino)methyl)-1H-1,2,3-triazol-1-yl)-2,2-dimethyl-2,3-dihydronaphtho[1,2-b]furan-4,5-dione]	3.16	1.9	3.55	1.7	5.97	5.24	1.1	0.99	6.0	3.16	1.9	3.16	1.9	2.55	2.3	3.35	1.8	1.7	3.5	–
COc1cccc2c1C(=O)C(NCc1cn(CC3CC4=C(O3)c3ccccc3C(=O)C4=O)nn1)=CC2=O (stereo not shown) [Compound 20c, 2-((4-(((8-methoxy-1,4-dioxo-1,4-dihydronaphthalen-2-yl)amino)methyl)-1H-1,2,3-triazol-1-yl)methyl)-2,3-dihydronaphtho[1,2-b]furan-4,5-dione]	> 100	–	44.1	2.3	> 100	39.4	2.5	38.3	2.6	> 100	–	24.5	4.1	37	2.7	49.6	2.0	> 100	–	–

Source: publication PMC10005332, “It Takes Two to Tango, Part II: Synthesis of A-Ring Functionalised Quinones Containing Two Redox-Active Centres with Antitumour Activities” (Molecules, 2023)
